Measurements taken from patent US20150231167A1, “TREATMENT OF HEMATOLOGICAL NEOPLASMS” (THOMAS JEFFERSON UNIVERSITY, priority 2012, published 2015).

How the values were obtained:
Stat5a = target: T1, Stat5a (Homo sapiens, UniProt P42229); assay: Stat5a dimerization, co-immunoprecipitation of FLAG- and MYC-tagged Stat5a in PC-3 cells; assay type: cell-based; settings: pre-treated 2 h, hPrl 10 nM 30 minutes
T1 construct: expressed in transfected cells; host or cells: PC-3
T1 sequence (P42229 1-794): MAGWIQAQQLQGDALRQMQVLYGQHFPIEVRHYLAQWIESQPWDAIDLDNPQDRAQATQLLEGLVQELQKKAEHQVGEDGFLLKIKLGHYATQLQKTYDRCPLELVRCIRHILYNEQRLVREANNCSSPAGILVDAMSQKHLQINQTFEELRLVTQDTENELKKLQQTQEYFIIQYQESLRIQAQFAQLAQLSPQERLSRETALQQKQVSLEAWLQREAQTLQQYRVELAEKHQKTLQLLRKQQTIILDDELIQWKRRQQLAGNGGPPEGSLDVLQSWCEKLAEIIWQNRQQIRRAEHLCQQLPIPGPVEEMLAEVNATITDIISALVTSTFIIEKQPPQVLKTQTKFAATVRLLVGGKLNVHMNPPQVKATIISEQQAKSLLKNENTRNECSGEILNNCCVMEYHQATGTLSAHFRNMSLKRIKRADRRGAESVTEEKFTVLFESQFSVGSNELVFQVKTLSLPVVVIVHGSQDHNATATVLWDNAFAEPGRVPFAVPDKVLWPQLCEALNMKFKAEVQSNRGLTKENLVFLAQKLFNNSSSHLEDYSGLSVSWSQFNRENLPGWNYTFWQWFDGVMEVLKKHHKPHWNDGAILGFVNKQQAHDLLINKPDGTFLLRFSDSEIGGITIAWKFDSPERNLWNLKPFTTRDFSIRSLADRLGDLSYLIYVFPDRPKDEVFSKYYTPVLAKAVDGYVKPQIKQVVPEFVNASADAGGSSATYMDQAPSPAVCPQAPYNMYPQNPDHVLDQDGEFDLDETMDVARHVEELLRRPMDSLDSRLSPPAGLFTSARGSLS
Description: FLAG-tagged Stat5a and MYC-tagged Stat5a were generated as follows by standard molecular biology cloning techniques. Plasmid pCMV3-FLAG-Stat5a, pCMV3-MYC-Stat5a and pPr1R were co-transfected using FuGENE6 (Roche) into PC-3 cells (2 μg of each plasmid per 1×10^7 cells). The cells were starved for 20 hours, pre-treated with N^6-benzyladenosine for 2 h, then stimulated with hPrl (10 nM) in RPMI 1640 without serum for 30 minutes. The cell lysates were immunoprecipitated with 25 μl anti-FLAG M2 […] affinity gel (2 μg/ml, Sigma), anti-MYC pAb (1 μg/ml, Upstate) or normal rabbit serum (NRS). The primary antibodies were used in the immunoblottings at the following concentrations: anti-FLAG pAb (1:1000; Stratagene), anti-MYC mAb (1:1000; Sigma), anti-Stat5a/b mAb (1:250) (Transduction Laboratories) detected by horseradish peroxidase-conjugated secondary antibodies.
Lanes 1, 2, 4, 6 and 8 represent cells stimulated with human prolactin (Prl) for 30 minutes which induces dimerization of Stat5. Two hours prior to Prl-stimulation, the cells had been treated with DMSO (lanes 1-4), the control compound C5 (lanes 5 and 6) or N^6-benzyladenosine (lanes 7 and 8) to test whether the Stat5a/b-inhibitor compound, N6BA, would be able to inhibit dimerization of Stat5. […] It should be noted the drug effect in this study was not due to cell apoptosis induction, as the treatment time was only 2 hours.

Stat5a/b [1] = assay: Western blot of Stat5a/b phosphorylation in K562 cells; assay type: cell-based, human
Description: (§1) Exponentially growing K562 cells were treated with 5 μM N6BAP or pimozide for 3 h after which the cells were harvested. Pimozide is a Stat5 inhibitor in leukemia cells (Nelson et al., Blood 117:3421-3429, 2011). Cell pellets were solubilized in lysis buffer [10 mM Tris-HCl (pH 7.6), 5 mM EDTA, 50 mM sodium chloride, 30 mM sodium pyrophosphate, 50 mM sodium fluoride, 1 mM sodium orthovanadate, 1% Triton X-100, 1 mM phenylmethylsulfonyl fluoride, 5 μg/ml aprotinin, 1 μg/ml pepstatin A, and 2 μg/ml leupeptin], rotated end-over-end at 4° C. for 60 min, and insoluble material was pelleted at 12,000×g for 30 min at 4° C. The protein concentrations of clarified cell lysates were determined by simplified Bradford method (Bio-Rad Laboratories, Hercules, Calif.). Western blotting of the lysates was carried out using, as primary antibodies, the following antibodies at the following concentrations: anti-phosphotyrosine-Stat5a/b (Y694/Y699) mAb (1 μg/ml, Advantex BioReagents, Conroe, Tex.), anti-Stat5ab mAb (1:250; BD Biosciences, San Jose, Calif.), anti-human Abl mAb (Calbiochem) or anti-phosphotyrosine mAb (Millipore).
(§2) Exponentially growing K562 cells were treated with N6BA for 3 h or 6 h after which the cells were harvested. […] The protein concentrations of clarified cell lysates were determined by simplified Bradford method (Bio-Rad Laboratories, Hercules, Calif.). […]

K562 cells = assay: K562 cell viability, MTS metabolic activity assay; assay type: cell-based, human; settings: 72 h at 3.1, 6.3, 12.5, 25 and 50 μM
Description: Exponentially growing K562 cells were treated with N6BAP or the control compound C5 for 72 h at 3.1, 6.3, 12.5, 25 and 50 μM indicated concentrations. The cell viability was assessed by MTS ([…]) metabolic activity assay (CellTiter 96® AQueous Assay kit).
Exponentially growing K562 leukemia cells were treated with N6BA or the control compound C5 for 72 h at 3.1, 6.3, 12.5, 25 and 50 μM concentrations. The cell viability was assessed by MTS ([…]) metabolic activity assay (CellTiter 96® AQueous Assay kit).

Stat5a/b [2] = assay: Western blot of Stat5a/b phosphorylation in parental KCL22 cells (KCL22S); assay type: cell-based, human; settings: various concentrations, 6 h or 16 h
Description: (§3) Exponentially growing KCL22 and KCL22R cells were treated with N6BAP at various concentrations for 6 h or 16 h after which the cells were harvested. Cell pellets were solubilized in lysis buffer [10 mM Tris-HCl (pH 7.6), 5 mM EDTA, 50 mM sodium chloride, 30 mM sodium pyrophosphate, 50 mM sodium fluoride, 1 mM sodium orthovanadate, 1% Triton X-100, 1 mM phenylmethylsulfonyl fluoride, 5 μg/ml aprotinin, 1 μg/ml pepstatin A, and 2 μg/ml leupeptin], rotated end-over-end at 4° C. for 60 min, and insoluble material was pelleted at 12,000×g for 30 min at 4° C. The protein concentrations of clarified cell lysates were determined by simplified Bradford method (Bio-Rad Laboratories, Hercules, Calif.). Western blotting of the lysates was carried out using, as primary antibodies, the following antibodies at the following concentrations: anti-phosphotyrosine-Stat5a/b (Y694/Y699) mAb (1 μg/ml, Advantex BioReagents, Conroe, Tex.), anti-Stat5ab mAb (1:250; BD Biosciences, San Jose, Calif.) or anti-actin pAb (Sigma). Anti-actin was included as a control.
as §2

Stat5a/b [3] = assay: Western blot of Stat5a/b phosphorylation in imatinib-resistant KCL22 cells (KCL22R); assay type: cell-based, human; settings: various concentrations, 6 h or 16 h
Description: as §3, §2

Stat5 = Stat5 transcriptional activity, beta-casein promoter luciferase reporter gene assay in PC-3 cells; assay type: cell-based, human; settings: pretreated 1 hour, 10 nM hPrl for 16 hours, firefly/Renilla luciferase
Description: Cells of the human prostate cell line PC-3 were plated into 96-well plate at the density of 2×10^5 per well. After 24 hours of plating, cells were transiently co-transfected using FuGENE6 (Roche) with 0.25 μg of each of pStat5a or pStat5b, pPr1R (prolactin receptor) plasmids, 0.5 μg of pBeta-casein-luc and 0.025 μg of pRL-TK (Renilla luciferase plasmids as an internal control. After another 24 hours of transfection, the cells were starved in serum-free medium for 8 hours, pretreated with N^6-benzyladenosine (“N6BA”), or the control compound C5, for 1 hour, and then stimulated with 10 nM human prolactin (hPrl) in the serum-free medium for additional 16 hours. The lysates were assayed for firefly and Renilla luciferase activities using the Dual-Luciferase reporter assay system (Promega). Three independent experiments were carried out in triplicate. The firefly luciferase activity was normalized to the Renilla luciferase activity of the same sample, and the mean was calculated from the parallels. From the mean values of each independent run, the overall mean and its standard deviation (S.D.) were calculated.

BCR-ABL = target: T2, BCR-ABL (Homo sapiens, UniProt P00519); assay: Western blot of BCR-ABL phosphorylation and protein levels in K562 cells; assay type: cell-based; settings: 5 μM, 3 h
T2 construct: endogenous in cells; host or cells: K562; the other entry of the earlier key: BCR (P11274, Breakpoint cluster region protein)
Description: as §1

K562 parent cell line = assay: Growth of K562 parent cell line, trypan blue viable cell count; assay type: cell-based, human; settings: 5 μM; 24, 48, 72 and 96 hours
Description: (§4) The K562 parent cell line and an imatinib-resistant K562 line were cultured in the presence of culture medium without any compounds (Ctrl), DMSO (0.1%), the control compound C5 (5 μM) or N6BAP at 5 μM concentration. The cells were harvested at 24, 48, 72 and 96 hours, trypan blue stained and the numbers of viable cells were counted for each time-point.

[4] = system: imatinib-resistant K562 line; assay: Growth of imatinib-resistant K562 line, trypan blue viable cell count; assay type: cell-based, human; settings: 5 μM; 24, 48, 72 and 96 hours
Description: as §4

KCL22 = assay: Growth of KCL22 parent cell line, trypan blue viable cell count; assay type: cell-based, human; settings: 5 μM; 24, 48, 72 and 96 hours
Description: (§5) KKCL22 and BV173 parent cell lines, and imatinib-resistant counterpart cell lines, were cultured in the presence culture medium without any compounds (Ctrl), DMSO (0.1%), the control compound C5 (5 μM) or N6BAP at 5 μM concentration. The imatinib-resistant lines are characterizes by the bcr-abl T315I mutation, which provides imatinib resistance. The cells were harvested at 24, 48, 72 and 96 hours, trypan blue stained and the numbers of viable cells were counted for each time-point.

KCL22 T315I = assay: Growth of imatinib-resistant KCL22 T315I line, trypan blue viable cell count; assay type: cell-based, human; settings: 5 μM; 24, 48, 72 and 96 hours
Description: as §5

BV173 = assay: Growth of BV173 parent cell line, trypan blue viable cell count; assay type: cell-based, human; settings: 5 μM; 24, 48, 72 and 96 hours
Description: as §5

BV173 T315I = assay: Growth of imatinib-resistant BV173 T315I line, trypan blue viable cell count; assay type: cell-based, human; settings: 5 μM; 24, 48, 72 and 96 hours
Description: as §5

[5] = system: BCR-ABL-driven human leukemic cell lines; assay: Cell cycle progression analysis (data not shown); assay type: cell-based

T2 sequence (P00519 with tags, fused parts or gaps): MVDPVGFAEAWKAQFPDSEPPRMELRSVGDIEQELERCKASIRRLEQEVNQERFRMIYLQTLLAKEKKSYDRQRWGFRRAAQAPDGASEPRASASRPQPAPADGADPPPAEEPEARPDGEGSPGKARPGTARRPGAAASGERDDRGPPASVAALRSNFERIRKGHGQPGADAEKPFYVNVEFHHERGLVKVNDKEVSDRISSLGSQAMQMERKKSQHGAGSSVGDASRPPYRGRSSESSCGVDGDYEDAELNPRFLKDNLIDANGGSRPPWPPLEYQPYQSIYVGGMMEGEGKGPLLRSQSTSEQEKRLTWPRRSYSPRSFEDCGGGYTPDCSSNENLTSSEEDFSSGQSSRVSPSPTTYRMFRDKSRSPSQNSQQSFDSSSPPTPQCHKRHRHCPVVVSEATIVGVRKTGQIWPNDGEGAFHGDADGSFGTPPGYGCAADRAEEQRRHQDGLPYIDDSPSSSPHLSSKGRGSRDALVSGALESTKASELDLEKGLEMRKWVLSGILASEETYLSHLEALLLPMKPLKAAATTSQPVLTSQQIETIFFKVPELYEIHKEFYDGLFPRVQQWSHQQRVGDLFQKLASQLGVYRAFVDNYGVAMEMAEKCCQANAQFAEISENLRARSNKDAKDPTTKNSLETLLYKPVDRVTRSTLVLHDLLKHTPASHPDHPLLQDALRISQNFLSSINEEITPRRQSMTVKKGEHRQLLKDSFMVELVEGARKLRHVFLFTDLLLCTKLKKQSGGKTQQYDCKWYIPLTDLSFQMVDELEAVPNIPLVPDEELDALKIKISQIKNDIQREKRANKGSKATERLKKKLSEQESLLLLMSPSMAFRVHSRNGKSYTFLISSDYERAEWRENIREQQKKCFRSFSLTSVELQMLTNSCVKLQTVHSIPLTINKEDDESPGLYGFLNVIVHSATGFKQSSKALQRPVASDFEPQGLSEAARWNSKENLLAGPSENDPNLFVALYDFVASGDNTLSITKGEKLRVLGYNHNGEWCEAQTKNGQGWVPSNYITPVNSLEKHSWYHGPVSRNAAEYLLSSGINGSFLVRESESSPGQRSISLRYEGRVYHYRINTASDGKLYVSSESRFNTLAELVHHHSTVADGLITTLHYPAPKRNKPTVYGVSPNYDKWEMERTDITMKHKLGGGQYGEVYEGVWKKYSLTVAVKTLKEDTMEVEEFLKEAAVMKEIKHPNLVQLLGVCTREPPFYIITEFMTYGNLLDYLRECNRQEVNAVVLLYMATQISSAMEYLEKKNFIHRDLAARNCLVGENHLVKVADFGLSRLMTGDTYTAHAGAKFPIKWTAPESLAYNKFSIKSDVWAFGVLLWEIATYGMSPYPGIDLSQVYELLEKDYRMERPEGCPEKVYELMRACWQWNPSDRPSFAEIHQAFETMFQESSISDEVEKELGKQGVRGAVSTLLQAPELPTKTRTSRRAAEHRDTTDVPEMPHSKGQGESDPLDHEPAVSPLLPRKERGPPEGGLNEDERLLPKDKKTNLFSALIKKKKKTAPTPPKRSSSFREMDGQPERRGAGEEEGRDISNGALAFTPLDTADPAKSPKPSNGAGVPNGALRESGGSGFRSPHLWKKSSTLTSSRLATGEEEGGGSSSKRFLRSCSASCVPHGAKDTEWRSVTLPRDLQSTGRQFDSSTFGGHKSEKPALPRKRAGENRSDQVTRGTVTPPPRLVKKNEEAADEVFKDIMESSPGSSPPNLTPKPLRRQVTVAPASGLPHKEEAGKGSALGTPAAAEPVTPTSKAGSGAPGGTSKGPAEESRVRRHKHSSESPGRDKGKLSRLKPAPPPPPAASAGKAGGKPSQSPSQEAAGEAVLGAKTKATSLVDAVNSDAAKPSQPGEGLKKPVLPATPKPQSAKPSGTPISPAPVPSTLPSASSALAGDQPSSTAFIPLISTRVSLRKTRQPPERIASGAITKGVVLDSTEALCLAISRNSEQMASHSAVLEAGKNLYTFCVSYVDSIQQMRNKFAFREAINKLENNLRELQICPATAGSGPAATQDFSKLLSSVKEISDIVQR

Row | Structure (SMILES) | Stat5a dimerization (Stat5a) | phosphorylation of Stat5 (Stat5a/b [1]; indicated concentrations, 3 h or 6 h) | number of viable K562 cells (MTS) (K562 cells) | phosphorylation of Stat5 (Stat5a/b [2]) | phosphorylation of Stat5 (Stat5a/b [3]) | transcriptional activity of Stat5 (Stat5) | phosphorylation of Stat5 (Stat5a/b [1]; 5 μM, 3 h, Western blot anti-pYStat5) | BCR-ABL protein levels (BCR-ABL) | phosphorylation of BCR-ABL (BCR-ABL; anti-phosphotyrosine mAb) | growth of the parental K562 line (K562 parent cell line) | growth of the imatinib-resistant K562 cell line [4] | growth of parental cell line KCL22 (KCL22) | growth of imatinib-resistant KCL22 T315I (KCL22 T315I) | growth of parental cell line BV173 (BV173) | growth of imatinib-resistant BV173 T315I (BV173 T315I) | apoptotic death (cell cycle progression analysis) [5]
1 | Nc1nc(SCc2cccnc2)[nH]c(=O)c1NC(=O)c1ccco1 [C5, reference compound] | did not inhibit dimerization of Stat5a | – | – | – | – | – | – | – | – | – | – | – | – | – | – | –
2 | OC[C@H]1O[C@@H](n2cnc3c(NCc4ccccc4)ncnc32)[C@H](O)[C@@H]1O [N6BA, N^6-benzyladenosine] | effectively inhibited Stat5a dimerization | inhibits phosphorylation of Stat5 | decreased the number of K562 cells | inhibits phosphorylation of Stat5 | inhibits phosphorylation of Stat5 | inhibits transcriptional activity of Stat5 | – | – | – | – | – | – | – | – | – | –
3 | O=P(O)(O)OC[C@H]1O[C@@H](n2cnc3c(NCc4ccccc4)ncnc32)[C@H](O)[C@@H]1O [N6BAP, N^6-benzyladenosine-5′-monophosphate] | – | – | reduces the number of viable K562 human leukemia cells | blocks phosphorylation of Stat5 | blocks phosphorylation of Stat5 | – | blocks phosphorylation of Stat5 | did not affect | did not affect phosphorylation of BCR-ABL | blocked not only the growth of the parental K562 line | blocked the growth of the imatinib-resistant cell line | blocked not only the growth of the parental cell lines | blocked the growth of the corresponding imatinib-resistant cell lines | blocked not only the growth of the parental cell lines | blocked the growth of the corresponding imatinib-resistant cell lines | induced apoptotic death
